Among the data in ChEMBL document CHEMBL1128067, “Isosteric replacement of the indole nucleus by benzothiophene in a series of pyrido[2,3-b]indoles with potential anxiolytic activity” (Bioorg Med Chem Lett, 1995) are IC50, Change and Nr/N values, retold here.

The target in assay [1] is GABA-A receptor; anion channel. Put plainly: Inhibition of [3H]flunitrazepam binding to GABA-A receptor. Format: protein-complex assay, Rattus norvegicus.
Assay [2] concerns Rattus norvegicus. Put plainly: Percent change in punished responding phase (FR) after administration of 20 mg/Kg oral dose in rat Geller-Seifter test. The assay is classed as functional.
Assay [3] has as its system Rattus norvegicus. Put plainly: Percent change in variable interval unpunished responding phase (VI) after administration of 20 mg/Kg oral dose in rat Geller-Seifter test. The assay is classed as functional.
Assay [4] is filed under the species Rattus norvegicus. Kind of assay: Number of animals responding to the above phases out of 16 tested, expressed as Nr/N. Format: functional.
Assay [5] has as its target GABA-A receptor; anion channel. Kind of assay: In vitro inhibition of [35S]t-butyl-bicyclophosphorothionate (TBPS) binding to Gamma-aminobutyric acid A (GABA-A) receptor. Format: protein-complex assay, Rattus norvegicus.
Assay [6] is filed under the species Rattus norvegicus. Kind of assay: Number of animals responding to the above phases out of 6 tested, expressed as Nr/N. The assay is classed as functional.
Assay [7] has as its system Rattus norvegicus. Kind of assay: Percent change in punished responding phase (FR) after administration of 20 mg/kg oral dose in rat Geller-Seifter test. The assay is classed as functional.
Assay [8] has as its system Rattus norvegicus. Put plainly: Percent change in variable interval unpunished responding phase (VI) after administration of 20 mg/kg oral dose in rat Geller-Seifter test. The assay is classed as functional.
In assay [9] the test system is Rattus norvegicus. Put plainly: Percent change in punished responding phase (FR) after administration of 20 mg/kg oral dose in rat Geller-Seifter test. The assay is classed as functional.
Assay [10] concerns Rattus norvegicus. Kind of assay: Percent change in variable interval unpunished responding phase (VI) after administration of 40 mg/Kg intraperitoneally in rat Geller-Seifter test. The assay is classed as functional.
Assay [11] is filed under the species Rattus norvegicus. Kind of assay: Number of animals responding to the above phases out of 8 tested, expressed as Nr/N. Format: functional.
In assay [12] the test system is Rattus norvegicus. Kind of assay: Percent change in punished responding phase (FR) after administration of 40 mg/Kg intraperitoneally in rat Geller-Seifter test. Format: functional.
Assay [13] deals with Rattus norvegicus. Put plainly: Percent change in punished responding phase (FR) after administration of 10 mg/Kg oral dose in rat Geller-Seifter test. The assay is classed as functional.
For assay [14], the system named is Rattus norvegicus. Put plainly: Percent change in variable interval unpunished responding phase (VI) after administration of 10 mg/Kg oral dose in rat Geller-Seifter test. The assay is classed as functional.

`CCOC(=O)c1c(C)nc2c(c1N)c1ccccc1n2C`: the IC50 (in general, the concentration that inhibits the measured activity by half) in [1] was > 100 µM. Further, the Change was 22% in [2] and -3% in assay [3]. Besides, the Nr/N in assay [4] was found to be 12.

`CC1CCc2nc3sc4c(c3c(N)c2C1=O)CCC4` (stereo unspecified) registered an IC50 in assay [5] of 1.7 µM. Further, the Change in assay [2] came to 26%; in assay [3] it was 0%. This compound also displayed a Nr/N in [6] of 5.

As for `Nc1c2c(nc3sc4c(c13)CCCCC4)CCCC2=O`, the IC50 is 0.29 µM in assay [5] and > 100 µM in assay [1].

Consider `CC1CCc2nc3c(c(N)c2C1=O)c1ccccc1n3C` (stereo unspecified), for which the IC50 in assay [1] is > 100 µM. Besides, the Change in [2] is 52%; in assay [3], 0%. This compound also showed a Nr/N in assay [6] of 5.

As to `Cn1c2ccccc2c2c(N)c3c(nc21)CCCC3`, in [5], the IC50 is > 100 µM.

As to `CC1CCc2nc3c(c(N)c2C1=O)c1c(n3C)CCCC1` (stereo unspecified), the results for the IC50 in [5] and in assay [1] were 2.7 µM and 18 µM, respectively. Besides, the Change in [7] came out at 28%; in assay [8] it was 1%. This compound also returned a Nr/N in assay [6] of 5.

Regarding `Cn1c2ccccc2c2cc3c(nc21)CCCC3=O`, the results for the IC50 in assay [5] and in assay [1] were 10 µM and > 100 µM, respectively. Also, the Change in assay [9] worked out at 4%; in [8] it was 2%. Also, in assay [6], the Nr/N is given as 3.

Regarding `COC(=O)c1c(C)nc2c(c(C)c(C)n2C)c1N`, the results for the IC50 in assay [5] and in assay [1] were 12 µM and > 100 µM, respectively.

For the compound `CC1CCc2nc3sc4c(c3c(N)c2C1=O)CCCC4` (stereo unspecified), in [5], the IC50 was 1.6 µM.

`CC1CCc2nc3sc4ccccc4c3c(N)c2C1=O` (stereo unspecified) displayed an IC50 in [5] of 0.46 µM. For the same compound, the values for the Change in [2] and in assay [3] were 30% and 0%, respectively. The Nr/N in [6] stood at 5.

In turn, `Cn1c2c(c3c(N)c4c(nc31)CCCC4=O)CCCC2` had an IC50 in assay [5] of 6.3 µM.

`CC1CCc2nc3sc4c(c3c(N)c2C1=O)CCCCC4` (stereo unspecified) came in with an IC50 in assay [5] of 0.37 µM.

`COC(=O)c1c(C)nc2sc3c(c2c1N)CCCC3`: in assay [5], the IC50 amounted to 7.5 µM. Moreover, the Change in [10] was 0%; in assay [12] it was 42%. This compound registered a Nr/N in assay [11] of 8.

Consider `CN1C(=O)CN=C(c2ccccc2)c2cc(Cl)ccc21` [DIAZEPAM], for which the figures for the Change in assay [13] and in assay [14] were 114% and 10%, respectively. This compound came in with a Nr/N in assay [11] of 7.
